Test results: patent US12459890B2, “Salt and crystal form of compound having agonistic activity to S1P5 receptor” (ONO PHARMACEUTICAL CO., LTD., priority 2019, dated 2025)

How the values were obtained:
human S1P1 (EDG-1) = human S1P1 (EDG-1) (Homo sapiens, UniProt P21453); assay: S1P receptor agonist activity by monitoring intracellular calcium concentration (S1P1); assay type: cell-based; details: CHO cells overexpressing human S1P1, intracellular calcium, S1P = 100%
Description: (§1) Chinese hamster ovary (CHO) cells in which human S1P1 (EDG-1) or human S1P5 (EDG-8) genes were overexpressed were cultured in Ham's F-12 medium containing 10% FBS (fetal bovine serum), penicillin/streptomycin, and geneticin (0.25 mg/mL). The medium was changed one day before the calcium assay was performed and on the day of the assay. Four hours after medium exchange, medium was removed and washed once with phosphate buffered saline. 0.05% Trypsin EDTA was added thereto to exfoliate the cells, and then a medium was added to recover the cells. The collected cell suspension was centrifuged to remove the supernatant, and suspended in phosphate buffered saline to count the number of cells. The cells were suspended in a Hanks solution containing Calcium 6 Assay Reagent (manufactured by Molecular Devices), 20 mM HEPES and 2.5 mM Probenecid so as to be 1.1×10^6 cells/mL, and incubated at 37° C. for about 1 hour. Thereafter, the supernatant was removed by centrifugation, and the cells were suspended in a Hanks solution containing 20 mM HEPES, 2.5 mM Probenecid and 0.1% BSA so as to be 2.2×10^6 cells/mL. The suspension was seeded in a 96 well plate at 80 μL/well. A plate was set in a fluorescent drug screening system (FDSS6000), Compound I or a comparative compound, and S1P were sequentially added, and an increase in intracellular calcium concentration before and after addition was measured at an excitation wavelength of 480 nm and a fluorescence wavelength of 540 nm. The increase in intracellular calcium concentration was evaluated by signal intensity at a fluorescence wavelength, and the agonist activity of each compound was calculated with the signal intensity when S1P was added instead of the compound as 100% activity.

human S1P5 (EDG-8) = human S1P5 (EDG-8) (Homo sapiens, UniProt Q9H228); assay: S1P receptor agonist activity by monitoring intracellular calcium concentration (S1P5); assay type: cell-based; details: for S1P5 receptor agonist activity: CHO cells overexpressing human S1P5, intracellular calcium, S1P = 100%; for balance of S1P5 receptor agonist activity with respect to S1P1 receptor (selectivity): comparison of agonist activities on S1P1 and S1P5
Description: as §1

[1] = Measurement of clearance in rats; assay type: in vivo, rat; details: male SD rats, fasted, tail-intravenous administration, plasma
Description: A solution of Compound I was tail-intravenously administered to male SD rats under fasted conditions. After administration, rats were retained by a manual method at regular time intervals, and blood was collected from the jugular vein with sodium heparin.
The blood was centrifuged at 10,000 g, 3 min, 4° C. to obtain plasma. Concentration of Compound I in the plasma was measured by LC/MS/MS. Clearance was calculated from the plasma concentration transition using pharmacokinetic analysis software Phoenix WinNonlin (Certara USA, Inc.).

[2] = test system: mouse experimental autoimmune encephalomyelitis model; assay: Effectiveness in mouse experimental autoimmune encephalomyelitis model; assay type: in vivo; details: female C57BL/J mice, MOG35-55 immunization, oral once a day for 30 days
Description: Female C57BL/J mice (Charles River Laboratories Japan, Inc., age at start of experiment: 7 or 8 weeks of age) were used. Myelin Oligodendrocyte Glycoprotein [sequence 35-55 […] (AnaSpec, Inc., hereinafter MOG35-55)] was dissolved in physiological saline (Otsuka Pharmaceutical Factory, Inc.) to prepare a 2 mg/mL solution. The 2 mg/mL solution of MOG35-55 and an equal amount of FCA H37Ra (Difco Laboratories) were mixed to prepare an emulsion, and the emulsion was used as an inducing agent. Immunization was performed by subcutaneously administering 0.2 mL of the inducing agent into the mouse flank using a glass syringe equipped with a 26G injection needle. […]
After dividing into groups, administration of a test substance (Compound I), a positive control compound (FTY720; fingolimod), or a vehicle (water for injection) was started on the same day, and each test substance was repetitively orally administered once a day for 30 days from the day before the immunization to day 28 of immunization. The amount of the solution to be administered was calculated based on the individual body weight on the day of administration. […]

[3] = Chemical stability test (residual rate by HPLC after storage); assay type: physicochemical; details: vs sample stored at −20° C.
Description: Stability of the salts and/or crystal forms of the present invention was studied under the storage conditions of Condition 1 or Condition 2. After storage, the residual rate (%) of the stored sample under each condition was calculated by HPLC based on the area percentage of the sample stored at −20° C.
• Condition 1 60° C.: 1 month: pulverized • Condition 2 80° C.: 1 week: unpulverized
Comparison object of each sample was stored at −20° C.

[4] = Condition 1: 60° C.: 1 month: pulverized
[5] = Condition 2: 80° C.: 1 week: unpulverized

human S1P1 (EDG-1), sequence (P21453 whole entry): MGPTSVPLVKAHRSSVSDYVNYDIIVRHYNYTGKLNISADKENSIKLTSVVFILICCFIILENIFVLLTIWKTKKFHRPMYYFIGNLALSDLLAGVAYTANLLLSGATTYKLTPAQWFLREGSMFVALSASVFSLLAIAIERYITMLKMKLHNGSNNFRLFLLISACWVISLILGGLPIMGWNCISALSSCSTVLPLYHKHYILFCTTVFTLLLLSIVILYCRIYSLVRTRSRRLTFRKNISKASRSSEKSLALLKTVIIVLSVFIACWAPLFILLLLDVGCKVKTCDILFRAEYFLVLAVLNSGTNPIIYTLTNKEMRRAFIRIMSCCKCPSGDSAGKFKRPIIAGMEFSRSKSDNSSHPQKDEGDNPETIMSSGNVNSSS
human S1P5 (EDG-8), sequence (Q9H228 whole entry): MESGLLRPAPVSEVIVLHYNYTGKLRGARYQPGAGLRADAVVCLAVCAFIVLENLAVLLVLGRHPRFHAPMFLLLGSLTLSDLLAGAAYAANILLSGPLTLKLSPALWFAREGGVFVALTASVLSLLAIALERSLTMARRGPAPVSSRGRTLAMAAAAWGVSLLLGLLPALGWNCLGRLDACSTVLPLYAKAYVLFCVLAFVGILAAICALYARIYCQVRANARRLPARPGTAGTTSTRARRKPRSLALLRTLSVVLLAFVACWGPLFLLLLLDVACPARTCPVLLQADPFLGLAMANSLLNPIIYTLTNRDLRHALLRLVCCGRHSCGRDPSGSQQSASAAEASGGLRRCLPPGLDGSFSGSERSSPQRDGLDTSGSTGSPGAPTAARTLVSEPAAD

Structure (SMILES)	Residual rate (%) [3, 4] [%]	Residual rate (%) [3, 5] [%]	further results
CCCCCCCCOc1ccc2c(c1)CCC(CN1CC(C(=O)O)C1)=C2C.Cl [Comparative Compound A, 1-{[1-methyl-6-(octyloxy)-3,4-dihydro-2-naphthalenyl]methyl}-3-azetidine carboxylic acid hydrochloride]			S1P1 receptor agonist activity (human S1P1 (EDG-1)): had both S1P1 and S1P5 receptor agonist activities; S1P5 receptor agonist activity (human S1P5 (EDG-8)): had both S1P1 and S1P5 receptor agonist activities; balance of S1P5 receptor agonist activity with respect to S1P1 receptor (selectivity) (human S1P5 (EDG-8)): S1P1 receptor agonist activity being stronger than S1P5 receptor agonist activity
CCCc1ccc(COc2ccc3c(c2)CCC(CN2CC(C(=O)O)C2)=C3C)c(OC)c1 [Comparative Compound B, 1-({6-[(2-methoxy-4-propylbenzyl)oxy]-1-methyl-3,4-dihydro-2-naphthalenyl}methyl)-3-azetidine carboxylic acid]			S1P1 receptor agonist activity (human S1P1 (EDG-1)): had both S1P1 and S1P5 receptor agonist activities; S1P5 receptor agonist activity (human S1P5 (EDG-8)): had both S1P1 and S1P5 receptor agonist activities; balance of S1P5 receptor agonist activity with respect to S1P1 receptor (selectivity) (human S1P5 (EDG-8)): S1P1 receptor agonist activity being stronger than S1P5 receptor agonist activity
COc1ccc2c(c1)C[C@H](C)C(CN1CC(F)(C(=O)O)C1)=C2 [Comparative Example, (S)-3-Fluoro-1-[(6-methoxy-3-methyl-3,4-dihydronaphthalen-2-yl)methyl]azetidine-3-carboxylic acid]			S1P1 receptor agonist activity (human S1P1 (EDG-1)): did not have S1P1 and S1P5 receptor agonist activities; S1P5 receptor agonist activity (human S1P5 (EDG-8)): did not have S1P1 and S1P5 receptor agonist activities
C[C@H]1Cc2cc(OCCCC(F)(F)F)ccc2C=C1CN1CC(C(=O)O)C1 [Compound I, 1-[[(3S)-3-Methyl-6-(4,4,4-trifluorobutoxy)-3,4-dihydronaphthalen-2-yl]methyl]azetidine-3-carboxylic acid]			balance of S1P5 receptor agonist activity with respect to S1P1 receptor (selectivity) (human S1P5 (EDG-8)): selective agonist activity on the S1P5 receptor; Clearance [1]: low clearance; effectiveness in EAE model (neurological symptom score) [2]: shows effectiveness
C[C@H]1Cc2cc(OCCCC(F)(F)F)ccc2C=C1CN1CC(C(=O)O)C1 [Example 7, 1-[[(3S)-3-methyl-6-(4,4,4-trifluorobutoxy)-3,4-dihydronaphthalen-2-yl]methyl]azetidine-3-carboxylic acid]	99.1		
C[C@H]1Cc2cc(OCCCC(F)(F)F)ccc2C=C1CN1CC(C(=O)O)C1.O [Example 8, hydrate of 1-[[(3S)-3-methyl-6-(4,4,4-trifluorobutoxy)-3,4-dihydronaphthalen-2-yl]methyl]azetidine-3-carboxylic acid]	97.8		
C[C@H]1Cc2cc(OCCCC(F)(F)F)ccc2C=C1CN1CC(C(=O)O)C1.O=C(O)c1ccccc1 [Example 9, monobenzoate of 1-[[(3S)-3-methyl-6-(4,4,4-trifluorobutoxy)-3,4-dihydronaphthalen-2-yl]methyl]azetidine-3-carboxylic acid]	97.9		
C[C@H]1Cc2cc(OCCCC(F)(F)F)ccc2C=C1CN1CC(C(=O)O)C1.O=C(O)c1ccc(O)cc1 [Example 10, mono(4-hydroxybenzoate) of 1-[[(3S)-3-methyl-6-(4,4,4-trifluorobutoxy)-3,4-dihydronaphthalen-2-yl]methyl]azetidine-3-carboxylic acid]	99.4	99.6	
C[C@H]1Cc2cc(OCCCC(F)(F)F)ccc2C=C1CN1CC(C(=O)O)C1.O.O=C(O)c1ccc(O)cc1 [Example 12, hydrate of mono(4-hydroxybenzoate) of 1-[[(3S)-3-methyl-6-(4,4,4-trifluorobutoxy)-3,4-dihydronaphthalen-2-yl]methyl]azetidine-3-carboxylic acid]	95.3		
C[C@H]1Cc2cc(OCCCC(F)(F)F)ccc2C=C1CN1CC(C(=O)O)C1.C[C@H]1Cc2cc(OCCCC(F)(F)F)ccc2C=C1CN1CC(C(=O)O)C1.O=S(=O)(O)O [Example 13, hemisulfate of 1-[[(3S)-3-methyl-6-(4,4,4-trifluorobutoxy)-3,4-dihydronaphthalen-2-yl]methyl]azetidine-3-carboxylic acid]	97.1		
C[C@H]1Cc2cc(OCCCC(F)(F)F)ccc2C=C1CN1CC(C(=O)O)C1.N[C@@H](Cc1c[nH]c2ccccc12)C(=O)O [Example 14, mono-tryptophan salt of 1-[[(3S)-3-methyl-6-(4,4,4-trifluorobutoxy)-3,4-dihydronaphthalen-2-yl]methyl]azetidine-3-carboxylic acid]	99.1	99.6	
C[C@H]1Cc2cc(OCCCC(F)(F)F)ccc2C=C1CN1CC(C(=O)O)C1.C[C@H]1Cc2cc(OCCCC(F)(F)F)ccc2C=C1CN1CC(C(=O)O)C1.O=C(O)CCC(=O)O [Example 15, hemisuccinate of 1-[[(3S)-3-methyl-6-(4,4,4-trifluorobutoxy)-3,4-dihydronaphthalen-2-yl]methyl]azetidine-3-carboxylic acid]		99.1	
C[C@H]1Cc2cc(OCCCC(F)(F)F)ccc2C=C1CN1CC(C(=O)O)C1.C[C@H]1Cc2cc(OCCCC(F)(F)F)ccc2C=C1CN1CC(C(=O)O)C1.O=C(O)CCCCC(=O)O [Example 16, hemiadipate of 1-[[(3S)-3-methyl-6-(4,4,4-trifluorobutoxy)-3,4-dihydronaphthalen-2-yl]methyl]azetidine-3-carboxylic acid]		95.8	
